# Measured values: article PMC7377361, “Pressurized DNA state inside herpes capsids—A novel antiviral target” (PLoS Pathogens, 2020)
# Where no end group is shown, it is not given here.
# Columns and labels:
# free dsDNA = assay: SAXS of free (bulk) DNA condensed by added compound; settings: free dsDNA in TM-buffer, N/P ratio 1.5, 15, 23 and 37°C
# From the text: To determine if our DNA condensing compounds target pressurized intracapsid DNA in HSV-1 virions, we developed a three-step SAXS assay. In the first step, we confirmed the ability of compounds DAB-Am-4, bPEI 600, and Arg^5+ to condense the dsDNA in solution. We measured DNA-DNA spacing (ds) in bulk DNA solution in TM-buffer (i.e. free DNA without the capsid), where DNA is condensed by the added compound. This bulk DNA ds-measurement allows for quick prescreening with an in-house SAXS to determine if compounds are capable of binding to dsDNA and reducing DNA-DNA spacing below the physiologic ds-value for DNA packaged in a viral capsid (ds* = 31Å for HSV-1). […] The Bragg spacing, dBr, and the actual distance between helices, ds, are related by ds = 2dBr/sqrt(3) (see details in Materials and Methods). […] Compound concentrations were scaled proportionally with DNA concentration in the sample to correspond to the N/P ratio of 1.5, where N provides the number of positively charged amine groups on the polyamine compound, and P provides the number of negatively charged phosphate groups on the DNA. An N/P ratio of ~1–1.5 was previously shown to be sufficient for DNA condensation with polycationic amines.
# For bulk DNA measurements with in-house SAXS, concentrated polycation solutions were added to 1 mg/mL free DNA in small increments of concentration. […]
# [1] = system: DNA packaged in HSV-1 virion; assay: SAXS of HSV-1 virions with added compound; settings: HSV-1 virions in TM-buffer, 37°C
# Procedure: In the third SAXS screening step, we added the selected compounds to whole virions (enveloped capsids) in TM-buffer to verify that the compounds penetrate the lipid envelope, tegument protein layer, and capsid wall. […] Both C-capsids and virions have a well-resolved X-ray scattering peak corresponding to diffraction from packaged DNA[60] used for ds determination. […] During HSV-1 replication, it takes approximately 1 h for HSV-1 to adsorb to a cell surface and an additional 2–4 h for viral capsids to be transported, once fused with a cell membrane, to a cell nucleus where DNA is ejected from capsids. [HSV-1 replication dynamics in cell culture were verified separately and were also verified elsewhere[41]]. […] Compound concentrations in this SAXS measurements of virions were the same as in the SAXS measurements of C-capsids above, with virion concentration of 10^13 pfu/mL.
# Vero cells were infected with an HSV-1 KOS strain overnight (21 h at 37°C) at a MOI of 0.1 PFU per cell. […] The concentrations of the compounds added to induce DNA condensation were calculated as described above.
# All SAXS measurements of viral capsids were conducted at a concentration of 10^13 viral particles per mL (the highest technically achievable capsid concentration). […] Samples were measured in the temperature range of 15–37°C, and the sample temperature was controlled with a Peltier device with ± 0.5°C accuracy. […]
Compound,DNA-DNA interaxial spacing ds (free dsDNA),DNA-DNA interaxial spacing ds [1]
RRRRR [Arg^5+],below 31 Å,below 31 Å
NCCCN(CCCN)CCCCN(CCCN)CCCN [DAB-Am-4],below 31 Å,below 31 Å
